Laboratory results reported in US8338624B2, “Isoflavone derivatives and uses thereof” (Yeda Research and Development Co., Ltd., priority 2007, dated 2012).
Residues, ends and D or L forms follow the SMILES beside them. *: point of attachment. Cbz = O=C(OCc1ccccc1)*; CH2F = FC*

Key:
[1] = test system: 320DM human colon cancer cells; experiment: DNA synthesis by [3H]-thymidine incorporation, 320DM cells; format: cell-based; details: for effect on DNA synthesis / growth: 30 to 3000 nM
Description: (§1) Cells were cultured in MEM supplemented with 10% FCS and antibiotics. Cells were grown to subconfluence and then treated with various hormones or agents as described by Somjen et al. (Somjen et al., 1998). The cells were characterized in terms of expression of mRNAs for estrogen […] by real time PCR, and the results are summarized in Table 1. N87, 320DM and H295R cells expressed mRNAs for both ERs. The ratio of ERα to ERβ was 1:8.5, 1:30 and 1:1.8 in N87, 320DM and H295R cells, respectively. Ovarian A2780 and prostate C4-24 cells expressed mainly mRNA for ERβ, and the ratio of ERβ to ERα was 300:1 and 70:1, respectively. MLS ovarian cells expressed mRNA only for ERβ. The ratio of ERα to ERβ in T47D cells has been reported to be 9:1.
[^3H]-Thymidine incorporation into DNA was used for the assessment of the various effects (proliferative or inhibitory) of various isoflavones, isoflavone derivatives and known cytotoxic drugs in the above-mentioned cells. Cells were grown until subconfluence using conditions described in Somjen et al. […] At the end of incubation, [^3H]-thymidine was added for two hours. Cells were then treated with 10% ice-cold trichloroacetic (TCA) for 5 min and washed twice with 5% TCA and then with cold ethanol. The cellular layer was dissolved in 0.3 ml of 0.3 M NaOH, aliquots were taken for counting radioactivity, and [^3H]-thymidine incorporation into DNA was calculated.

[2] = test system: H295R adrenocarcinoma cells; experiment: DNA synthesis by [3H]-thymidine incorporation, H295R cells; format: cell-based, human; set-up: stimulation of DNA synthesis: concentration or dose not given beside the values; details: for inhibition at 3 µM: Homo sapiens, NCI-H295R, read-out: inhibition of DNA synthesis / growth
Description: as §1
(§2) [^3H]-Thymidine incorporation into DNA was used for the assessment of the various effects (proliferative or inhibitory) of various isoflavones, isoflavone derivatives and known cytotoxic drugs in the above-mentioned cells. Cells were grown until subconfluence using conditions described in Somjen et al. (Somjen et al., 1998) and then treated with various agents for 24 or 48 h as indicated. At the end of incubation, [^3H]-thymidine was added for two hours. Cells were then treated with 10% ice-cold trichloroacetic (TCA) for 5 min and washed twice with 5% TCA and then with cold ethanol. The cellular layer was dissolved in 0.3 ml of 0.3 M NaOH, aliquots were taken for counting radioactivity, and [^3H]-thymidine incorporation into DNA was calculated.

[3] = test system: human prostate C4-2B cancer cells; experiment: DNA synthesis by [3H]-thymidine incorporation, C4-2B cells; format: cell-based
Description: as §1, §2

[4] = test system: Human umbilical vascular smooth muscle cells (VSMC); experiment: DNA synthesis by [3H]-thymidine incorporation, normal VSMC; format: cell-based; details: for effect on DNA synthesis: at 300 nM
Description: Human umbilical vascular smooth muscle cells (VSMC) sensitive to estrogen, were grown in culture as described above, and used only at passages 1-3, when expression of smooth muscle actin was clearly demonstrable (Somjen et al. 2000). The ratio of the expression of mRNA for ERα to ERβ was 2.7:1.
as §2

[5] = test system: N87 gastric carcinoma cells; experiment: DNA synthesis by [3H]-thymidine incorporation, N87 cells; format: cell-based, human
Description: as §1, §2

[6] = test system: T47D mammary cancer cells; experiment: DNA synthesis by [3H]-thymidine incorporation, T47D cells; format: cell-based, human; details: at 10 μM
Description: as §1, §2

[7] = test system: A2780 ovarian cancer cells; experiment: DNA synthesis by [3H]-thymidine incorporation, A2780 cells; format: cell-based, human; details: for inhibition at 25 µM: read-out: inhibition of cell proliferation
Description: as §1, §2

ERβ compared to ERα = details: transfected cells; cited from earlier work
MLS ovarian cancer cells = experiment: DNA synthesis by [3H]-thymidine incorporation, MLS cells; format: cell-based, human
Description: as §1, §2

MLS ovarian xenografts = MLS ovarian xenografts in nude mice; format: in vivo; details: daunomycin iv 200 μg/mouse every other day
From the text: Female CD1 nude mice (8-week old, ˜30 g) were housed and handled with free access to food and water in the animal facility according to the guidelines (1996) of the Institutional Animal Care and Use Committee of the Weizmann Institute of Science, Rehovot, Israel.
Thirty female nude mice (8 weeks old) were inoculated sub-cutaneously (sc) with MLS ovarian carcinoma cells (1.5×10^6/mouse). Ten days later, when the tumors were palpable, the mice were randomly divided into 3 groups (8-10 mice/group). The mice in each group were iv injected every other day either with a vehicle (Neowater, a solubilization enhancer, 0.1 ml), daunomycin dissolved in Neowater (200 μg/mouse in 0.1 ml vehicle, total dose during treatment 1 mg/mouse), or compound 9 dissolved in Neowater (400 μg/mouse in 0.1 ml vehicle, total dose during treatment 2 mg/mouse). During treatment, body weight was recorded to monitor toxicity of the treatment, and the tumors were measured with an external caliper. Tumor volume was calculated using the formula length×width×height×π/6. Statistical significance was assessed using student's t test, and differences were considered significant at p<0.05.

[8] = ICI 182780 (1.1 μM) + E2 0.3 μM
[9] = estradiol 30 nM + 1.1 μM ICI 182780
[10] = apoptosis inhibitor at 25 μM alone

COc1ccc(-c2coc3cc(O)cc(O)c3c2=O)cc1 [Compound 1, Biochanin A, reference compound]
effect on DNA synthesis / growth [1]: had no effect on growth
effect on DNA synthesis ([2]; at 3 μM): had no effect on DNA synthesis
effect on DNA synthesis ([3]; at 3 μM): stimulated DNA synthesis significantly
effect on DNA synthesis [4]: stimulated DNA synthesis
effect on DNA synthesis ([5]; at 3 μM): had no effect
effect on DNA synthesis [6]: stimulated DNA synthesis

O=c1c(-c2ccc(O)cc2)coc2cc(O)cc(O)c12 [Compound 2, Genistein, reference compound]
effect on [3H]-thymidine incorporation into DNA ([1]; 30 to 300 nM): significantly stimulated [^3H]-thymidine incorporation into DNA
inhibition at 25 µM ([7]; Homo sapiens): 30 to 40%
effect on DNA synthesis ([3]; at 3 μM): stimulated DNA synthesis significantly
sensitivity for activating transcription via ERβ compared to ERα (ERβ compared to ERα): 100 fold

O=c1c(-c2ccc(O)cc2)coc2cc(O)ccc12 [Compound 3, Daidzein, reference compound]
inhibition at 25 µM ([7]; Homo sapiens): 30 to 40%
effect on DNA synthesis ([3]; at 3 μM): stimulated DNA synthesis significantly
effect on DNA synthesis [4]: stimulated DNA synthesis
effect on DNA synthesis [6]: stimulated DNA synthesis
sensitivity for activating transcription via ERβ compared to ERα (ERβ compared to ERα): 100 fold

COc1ccc(-c2c(CCCC(=O)O)oc3cc(O)cc(O)c3c2=O)cc1 [Compound 4, 2-(3-carboxypropyl)-7,5-dihydroxy-4′-methoxyisoflavone]
effect on DNA synthesis / growth [1]: stimulated the DNA synthesis
stimulation of DNA synthesis ([2]; concentration not given): 273%
effect on DNA synthesis ([3]; at 300 nM): stimulated DNA synthesis
effect on DNA synthesis [4]: stimulated DNA synthesis
stimulation of DNA synthesis ([5]; at 300 nM): 50%
effect on DNA synthesis [6]: had no effect

O=C(O)CCCc1oc2cc(O)cc(O)c2c(=O)c1-c1ccc(O)cc1 [Compound 5, 2-(3-Carboxypropyl)-5,7,4′-trihydroxyisoflavone]
effect on DNA synthesis / growth [1]: significantly stimulated [^3H]-thymidine incorporation into DNA
effect on DNA synthesis ([3]; at 300 nM): stimulated DNA synthesis

O=C(O)COc1ccc2c(=O)c(-c3ccc(O)cc3)coc2c1 [Compound 6, 7-(O)-Carboxymethyl daidzein, reference compound]
effect on DNA synthesis ([3]; at 300 nM): stimulated DNA synthesis
effect on DNA synthesis [4]: stimulated DNA synthesis
effect on DNA synthesis [6]: stimulated DNA synthesis

COc1ccc(-c2c(CCCC(=O)NCCCCCCNC(=O)OC(C)(C)C)oc3cc(O)cc(O)c3c2=O)cc1 [Compound 7, 2-[3-carboxy-(6-tert-butoxycarbonylamino)-hexylamino-propyl]-7,5-dihydroxy-4′-methoxyisoflavone]
effect on DNA synthesis / growth [1]: inhibited significantly DNA synthesis
DNA synthesis, ratio experimental/control (E/C) ([1]; compound at 3 μM): 0.22 ± 0.15
DNA synthesis, ratio experimental/control (E/C) (MLS ovarian cancer cells; compound at 3 μM): 0.05 ± 0.23
inhibition at 3 µM ([7]; Homo sapiens, at 3 μM, read-out: inhibition of DNA synthesis / growth): 35%
DNA synthesis, ratio experimental/control (E/C) ([7]; compound at 3 μM): 0.64 ± 0.16
inhibition at 3 µM ([2]; at 3 μM): 40 to 45%
DNA synthesis, ratio experimental/control (E/C) ([2]; compound at 3 μM): 0.55 ± 0.03
inhibition at 0.03 µM ([3]; Homo sapiens, at 30 nM): 10%
inhibition at 0.3 µM ([3]; Homo sapiens, at 300 nM): 50%
DNA synthesis, ratio experimental/control (E/C) ([3]; compound at 0.3 μM): 0.41 ± 0.27
inhibition at 3.3 µM ([4]; Homo sapiens, at 3.3 μM): 26%
DNA synthesis, ratio experimental/control (E/C) ([4]; compound at 3 μM): 0.74 ± 0.05
inhibition at 0.3 µM ([5]; Homo sapiens, at 300 nM, read-out: inhibition of cell growth): 40%

C[C@]12CC[C@@H]3c4ccc(O)cc4CC[C@H]3[C@@H]1CC[C@@H]2O [Compound E2, estradiol 17β, reference compound]
DNA synthesis, ratio experimental/control (E/C) ([1]; E2 30 nM alone (Table 3)): 2.06 ± 0.09
DNA synthesis, ratio experimental/control (E/C) ([1]; E2 0.3 μM alone): 1.87 ± 0.18
DNA synthesis, ratio experimental/control (E/C) ([1]; E2 at 30 nM (Table 2)): 1.64 ± 0.13
activity at 0.03 µM ([1]; Homo sapiens, estradiol 30 nM, read-out: [3H]-thymidine incorporation (% of control)): 206%
DNA synthesis, ratio experimental/control (E/C) (MLS ovarian cancer cells; E2 30 nM alone (Table 3)): 2.35 ± 0.06
DNA synthesis, ratio experimental/control (E/C) (MLS ovarian cancer cells; E2 0.3 μM alone): 1.70 ± 0.15
DNA synthesis, ratio experimental/control (E/C) (MLS ovarian cancer cells; E2 at 30 nM (Table 2)): 1.39 ± 0.03
activity at 0.03 µM (MLS ovarian cancer cells; Homo sapiens, estradiol 30 nM, read-out: DNA synthesis (% of control)): 235%
activity at 0.3 µM (MLS ovarian cancer cells; Homo sapiens, estradiol 0.3 μM, read-out: DNA synthesis (% of control)): 187%
DNA synthesis, ratio experimental/control (E/C) ([7]; E2 at 30 nM): 1.42 ± 0.10
DNA synthesis, ratio experimental/control (E/C) ([2]; E2 at 30 nM): 2.10 + .10
DNA synthesis, ratio experimental/control (E/C) ([3]; E2 at 30 nM): 2.10 ± 0.10
DNA synthesis, ratio experimental/control (E/C) ([4]; E2 at 30 nM): 0.55 ± 0.12

C[C@]12CC[C@@H]3c4ccc(O)cc4C[C@@H](CCCCCCCCC[S+]([O-])CCCC(F)(F)C(F)(F)F)[C@H]3[C@@H]1CC[C@@H]2O (stereo partly shown) [ICI 182780, reference compound]
DNA synthesis, ratio experimental/control (E/C) ([1]; ICI 182780 1.1 μM alone): 0.63 ± 0.08
DNA synthesis, ratio experimental/control (E/C) ([1]; ICI 182780 (1.1 μM) + E2 30 nM): 0.63 ± 0.08
DNA synthesis, ratio experimental/control (E/C) [1, 8]: 0.92 ± 0.18
DNA synthesis (% of control) [1, 9]: 63%
DNA synthesis (% of control) ([1]; estradiol 300 nM + 1.1 μM ICI 182780): 92%
DNA synthesis, ratio experimental/control (E/C) (MLS ovarian cancer cells; ICI 182780 1.1 μM alone): 0.52 ± 0.12
DNA synthesis, ratio experimental/control (E/C) (MLS ovarian cancer cells; ICI 182780 (1.1 μM) + E2 30 nM): 0.53 ± 0.11
DNA synthesis, ratio experimental/control (E/C) (MLS ovarian cancer cells; [8]): 0.95 ± 0.08
DNA synthesis (% of control) (MLS ovarian cancer cells; [9]): 53%
DNA synthesis (% of control) (MLS ovarian cancer cells; estradiol 0.3 μM + 1.1 μM ICI 182780): 95%

COC(=O)C[C@H](NC(=O)[C@H](C)NC(=O)[C@@H](NC(=O)OCc1ccccc1)C(C)C)C(=O)CF [Z-VADFK, Z-VAD-FMK Me ester, reference compound] (Cbz-Val-Ala-Asp(OMe)-CH2F)
DNA synthesis, ratio experimental/control (E/C) ([1]; Z-VADFK 25 μM alone): 1.11 ± 0.08
effect on DNA synthesis [1, 10]: had no effect on DNA synthesis
DNA synthesis, ratio experimental/control (E/C) (MLS ovarian cancer cells; Z-VADFK 25 μM alone): 1.06 ± 0.1
effect on DNA synthesis (MLS ovarian cancer cells; [10]): had no effect on DNA synthesis

N.N.O=C([O-])C1(C(=O)[O-])CCC1.[Pt+2] [carboplatin, reference compound]
inhibition of DNA synthesis / growth ([7]; at 3 μM): 57%

COc1cccc2c1C(=O)c1c(O)c3c(c(O)c1C2=O)C[C@@](O)(C(C)=O)C[C@@H]3O[C@H]1C[C@H](N)[C@H](O)[C@H](C)O1 [daunomycin, reference compound]
inhibition at 3 µM ([2]; at 3 μM): 75%
reduction in mean body weight (MLS ovarian xenografts): 15%
deaths caused (MLS ovarian xenografts; 8-10 mice/group): 2 mice
